In patent US9034897B2, “Indanyl-substituted 4,5,6,7-tetrahydro-1H-pyrazolo[4,3-C]pyridines, their use as medicament, and pharmaceutical preparations comprising them” (SANOFI, priority 2011, dated 2015):

molecular target: Human TASK-1 channels (Homo sapiens (Human), UniProt O14649); assay: Activity on the TASK-1 channel in Xenopus oocytes (two-microelectrode voltage clamp); assay type: cell-based; conditions: 5 μM; percentage inhibition of TASK-1 control current, Xenopus oocytes
Procedure: Determination of the activity on the TASK-1 channel in Xenopus oocytes:
Human TASK-1 channels were expressed in Xenopus oocytes. For this purpose, oocytes were isolated from Xenopus laevis and defolliculated. Subsequently, TASK-1-encoding RNA synthesized in vitro was injected into oocytes. After two days of TASK-1 protein expression, TASK-1 currents were measured by two-microelectrode voltage clamp. Data were acquired and analyzed using a TEC-10cx amplifier (NPI Electronic, Tamm, Germany) connected to an ITC-16 interface (Instrutech Corp., Long Island, USA) and Pulse software (HEKA Elektronik, Lambrecht, Germany). Oocytes were clamped to −90 mV and TASK-1 mediated currents were measured during 500 ms voltage pulses to 40 mV. Oocytes were continuously superfused with ND96 buffer containing: NaCl 96 mM, KCl2 mM, CaCl2 1.8 mM, MgCl2 1 mM, HEPES 5 mM (pH adjusted to 7.4 with NaOH). All experiments were performed at room temperature.
Test substances were consecutively added to the bath solution at rising concentrations. Compound effects were calculated as the percentage inhibition of
TASK-1 control current before compound application. IC50 values were obtained by fitting the data to the general dose-response equation.

Chain of Human TASK-1 channels (O14649 whole entry): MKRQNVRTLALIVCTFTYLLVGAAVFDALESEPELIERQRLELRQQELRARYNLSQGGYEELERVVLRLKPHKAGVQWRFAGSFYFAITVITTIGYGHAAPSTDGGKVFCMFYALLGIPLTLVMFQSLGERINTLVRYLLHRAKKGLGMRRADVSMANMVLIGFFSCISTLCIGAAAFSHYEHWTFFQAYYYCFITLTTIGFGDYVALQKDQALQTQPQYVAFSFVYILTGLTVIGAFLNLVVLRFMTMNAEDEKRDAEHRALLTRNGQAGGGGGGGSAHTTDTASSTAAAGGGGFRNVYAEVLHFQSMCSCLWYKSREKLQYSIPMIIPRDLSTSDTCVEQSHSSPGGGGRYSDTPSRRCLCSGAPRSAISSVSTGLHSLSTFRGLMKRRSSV

| SMILES | inhibition at 5 µM [%] |
| --- | --- |
| CC(C)(C)C(=O)N1CCc2c(c(-c3cccc(C#N)c3)nn2[C@@H]2c3cc(F)cc(F)c3C[C@H]2O)C1 [Example 14d, 3-[1-((1R,2R)-4,6-Difluoro-2-hydroxy-indan-1-yl)-5-(2,2-dimethyl-propionyl)-4,5,6,7-tetrahydro-1H-pyrazolo[4,3-c]pyridin-3-yl]-benzonitrile] | 94 |
| COCC(=O)N1CCc2c(c(-c3cccc(C#N)c3)nn2[C@@H]2c3cc(F)cc(F)c3C[C@H]2O)C1 [Example 14e, 3-[1-((1R,2R)-4,6-Difluoro-2-hydroxy-indan-1-yl)-5-(2-methoxy-acetyl)-4,5,6,7-tetrahydro-1H-pyrazolo[4,3-c]pyridin-3-yl]-benzonitrile] | 72 |
| CCC(=O)O[C@@H]1Cc2c(F)cc(F)cc2[C@H]1n1nc(-c2cccc(C#N)c2)c2c1CCN(C(=O)CC)C2 [Example 15a, Propionic acid (1R,2R)-1-[3-(3-cyano-phenyl)-5-propionyl-4,5,6,7-tetrahydro-pyrazolo[4,3-c]pyridin-1-yl]-4,6-difluoro-indan-2-yl ester] | 51 |
| NC(=O)c1cccc(-c2nn([C@@H]3c4cc(F)cc(F)c4C[C@H]3O)c3c2CN(C(=O)C2CC2)CC3)c1 [Example 15b, 3-[5-Cyclopropanecarbonyl-1-((1R,2R)-4,6-difluoro-2-hydroxy-indan-1-yl)-4,5,6,7-tetrahydro-1H-pyrazolo[4,3-c]pyridin-3-yl]-benzamide] | 24 |
| N#Cc1cccc(-c2nn([C@@H]3c4cc(F)cc(F)c4C[C@H]3O)c3c2CN(CCC(F)(F)F)CC3)c1 [Example 18c, 3-[1-((1R,2R)-4,6-Difluoro-2-hydroxy-indan-1-yl)-5-(3,3,3-trifluoro-propyl)-4,5,6,7-tetrahydro-1H-pyrazolo[4,3-c]pyridin-3-yl]-benzonitrile] | 91 |
| COCCN1CCc2c(c(-c3cccc(C#N)c3)nn2[C@@H]2c3cc(F)cc(F)c3C[C@H]2O)C1 [Example 18d, 3-[1-((1R,2R)-4,6-Difluoro-2-hydroxy-indan-1-yl)-5-(2-methoxy-ethyl)-4,5,6,7-tetrahydro-1H-pyrazolo[4,3-c]pyridin-3-yl]-benzonitrile] | 83 |
| N#Cc1cccc(-c2nn([C@@H]3c4cc(F)cc(F)c4C[C@H]3O)c3c2CN(CC2CC2)CC3)c1 [Example 18e, 3-[5-Cyclopropylmethyl-1-((1R,2R)-4,6-difluoro-2-hydroxy-indan-1-yl)-4,5,6,7-tetrahydro-1H-pyrazolo[4,3-c]pyridin-3-yl]-benzonitrile] | 81 |
| CCCN1CCc2c(c(-c3ccc(F)cc3)nn2[C@@H]2c3cc(F)cc(F)c3C[C@H]2O)C1 [Example 18f, (1R,2R)-4,6-Difluoro-1-[3-(4-fluoro-phenyl)-5-propyl-4,5,6,7-tetrahydro-pyrazolo[4,3-c]pyridin-1-yl]-indan-2-ol] | 67 |
| COCCN1CCc2c(c(-c3ccc(F)cc3)nn2[C@@H]2c3cc(F)cc(F)c3C[C@H]2O)C1 [Example 18g] | 56 |
| NC(=O)c1cccc(-c2nn([C@@H]3c4cc(F)cc(F)c4C[C@H]3O)c3c2CN(CCC(F)(F)F)CC3)c1 [Example 18h, 3-[1-((1R,2R)-4,6-Difluoro-2-hydroxy-indan-1-yl)-5-(3,3,3-trifluoro-propyl)-4,5,6,7-tetrahydro-1H-pyrazolo[4,3-c]pyridin-3-yl]-benzamide] | 39 |
| CCc1cc(F)cc2c1C[C@@H](O)[C@@H]2n1nc(-c2cccc(C#N)c2)c2c1CCN(C(C)=O)C2 [Example 19b, 3-[5-Acetyl-1-((1R,2R)-4-ethyl-6-fluoro-2-hydroxy-indan-1-yl)-4,5,6,7-tetrahydro-1H-pyrazolo[4,3-c]pyridin-3-yl]-benzonitrile] | 82 |

same assay, conditions: human TASK-1 expressed in Xenopus oocytes, currents during 500 ms pulses to 40 mV, room temperature

| SMILES | IC50 [µM] |
| --- | --- |
| CC(=O)N1CCc2c(c(-c3cccc(Cl)c3)nn2[C@@H]2c3cc(F)cc(F)c3C[C@H]2O)C1 [Example 11v, 1-[3-(3-Chloro-phenyl)-1-((1R,2R)-4,6-difluoro-2-hydroxy-indan-1-yl)-1,4,6,7-tetrahydro-pyrazolo[4,3-c]pyridin-5-yl]-ethanone] | 1.19 |
| CC(=O)N1CCc2c(c(-c3ccc(C)cc3)nn2[C@@H]2c3cc(F)cc(F)c3C[C@H]2O)C1 [Example 11x, 1-[1-((1R,2R)-4,6-Difluoro-2-hydroxy-indan-1-yl)-3-p-tolyl-1,4,6,7-tetrahydro-pyrazolo[4,3-c]pyridin-5-yl]-ethanone] | 1.52 |
| COc1cc(-c2nn([C@@H]3c4cc(F)cc(F)c4C[C@H]3O)c3c2CN(C(C)=O)CC3)ccc1F [Example 11y, 1-[1-((1R,2R)-4,6-Difluoro-2-hydroxy-indan-1-yl)-3-(4-fluoro-3-methoxy-phenyl)-1,4,6,7-tetrahydro-pyrazolo[4,3-c]pyridin-5-yl]-ethanone] | 1.92 |
| CC(=O)N1CCc2c(c(-c3ccc(F)c(C#N)c3)nn2[C@@H]2c3cc(F)cc(F)c3C[C@H]2O)C1 [Example 11z, 5-[5-Acetyl-1-((1R,2R)-4,6-difluoro-2-hydroxy-indan-1-yl)-4,5,6,7-tetrahydro-1H-pyrazolo[4,3-c]pyridin-3-yl]-2-fluoro-benzonitrile] | 2.13 |
| CC(=O)N1CCc2c(c(-c3ccc(F)cc3)nn2[C@@H]2CCc3ccccc32)C1 [Example 12a, 1-[(R)-3-(4-Fluoro-phenyl)-1-indan-1-yl-1,4,6,7-tetrahydro-pyrazolo[4,3-c]pyridin-5-yl]-ethanone] | 0.712 |
| CC(=O)N1CCc2c(c(-c3ccc(F)cc3)nn2[C@H]2CCc3ccccc32)C1 [Example 12b, 1-[(S)-3-(4-Fluoro-phenyl)-1-indan-1-yl-1,4,6,7-tetrahydro-pyrazolo[4,3-c]pyridin-5-yl]-ethanone] | 0.479 |
| CCC(=O)N1CCc2c(c(-c3cccc(C#N)c3)nn2[C@@H]2c3cc(F)cc(F)c3C[C@H]2O)C1 [Example 14a, 3-[1-((1R,2R)-4,6-Difluoro-2-hydroxy-indan-1-yl)-5-propionyl-4,5,6,7-tetrahydro-1H-pyrazolo[4,3-c]pyridin-3-yl]-benzonitrile] | 0.07 |
| N#Cc1cccc(-c2nn([C@@H]3c4cc(F)cc(F)c4C[C@H]3O)c3c2CN(C(=O)C2CC2)CC3)c1 [Example 14b, 3-[5-Cyclopropanecarbonyl-1-((1R,2R)-4,6-difluoro-2-hydroxy-indan-1-yl)-4,5,6,7-tetrahydro-1H-pyrazolo[4,3-c]pyridin-3-yl]-benzonitrile] | 0.0831 |
| CC(C)C(=O)N1CCc2c(c(-c3cccc(C#N)c3)nn2[C@@H]2c3cc(F)cc(F)c3C[C@H]2O)C1 [Example 14c, 3-[1-((1R,2R)-4,6-Dif1uoro-2-hydroxy-indan-1-yl)-5-isobutyryl-4,5,6,7-tetrahydro-1H-pyrazolo[4,3-c]pyridin-3-yl]-benzonitrile] | 0.25 |
| CO[C@@H]1Cc2c(F)cc(F)cc2[C@H]1n1nc(-c2cccc(C#N)c2)c2c1CCN(C(C)=O)C2 [Example 16a, 3-[5-Acetyl-1-((1R,2R)-4,6-difluoro-2-methoxy-indan-1-yl)-4,5,6,7-tetrahydro-1H-pyrazolo[4,3-c]pyridin-3-yl]-benzonitrile] | 0.446 |
| CO[C@@H]1Cc2c(F)cc(F)cc2[C@H]1n1nc(-c2ccc(F)cc2)c2c1CCN(C(C)=O)C2 [Example 16b, 1-[1-((1R,2R)-4,6-Difluoro-2-methoxy-indan-1-yl)-3-(4-fluoro-phenyl)-1,4,6,7-tetrahydro-pyrazolo[4,3-c]pyridin-5-yl]-ethanone] | 1.16 |
| COC(=O)N1CCc2c(c(-c3cccc(C#N)c3)nn2[C@@H]2c3cc(F)cc(F)c3C[C@H]2O)C1 [Example 17a, 3-(3-Cyano-phenyl)-1-((1R,2R)-4,6-difluoro-2-hydroxy-indan-1-yl)-1,4,6,7-tetrahydro-pyrazolo[4,3-c]pyridine-5-carboxylic acid methyl ester] | 0.26 |
| O[C@@H]1Cc2c(F)cc(F)cc2[C@H]1n1nc(-c2ccc(F)cc2)c2c1CCN(CC1CC1)C2 [Example 18a, (1R,2R)-1-[5-cyclopropylmethyl-3-(4-fluoro-phenyl)-4,5,6,7-tetrahydro-pyrazolo[4,3-c]pyridin-1-yl]-4,6-difluoro-indan-2-ol] | 0.5 |
| CC(C)N1CCc2c(c(-c3ccc(F)cc3)nn2[C@@H]2c3cc(F)cc(F)c3C[C@H]2O)C1 [Example 18b, (1R,2R)-4,6-Difluoro-1-[3-(4-fluoro-phenyl)-5-isopropyl-4,5,6,7-tetrahydro-pyrazolo[4,3-c]pyridin-1-yl]-indan-2-ol] | 8.19 |
| CC(=O)N1CCc2c(c(-c3cccc(C#N)c3)nn2[C@@H]2c3cc(F)cc(C)c3C[C@H]2O)C1 [Example 19a, 3-[5-Acetyl-1-((1R,2R)-6-fluoro-2-hydroxy-4-methyl-indan-1-yl)-4,5,6,7-tetrahydro-1H-pyrazolo[4,3-c]pyridin-3-yl]-benzonitrile] | 0.231 |
| CC(=O)N1CCc2c(c(-c3cccc(C#N)c3)nn2[C@@H]2c3cc(F)cc(C4CC4)c3C[C@H]2O)C1 [Example 20a, 3-[5-Acetyl-1-((1R,2R)-4-cyclopropyl-6-fluoro-2-hydroxy-indan-1-yl)-4,5,6,7-tetrahydro-1H-pyrazolo[4,3-c]pyridin-3-yl]-benzonitrile] | 0.5 |
| CC(=O)N1CCc2c(c(-c3cccc(C#N)c3)nn2[C@@H]2c3cc(F)cc(Cl)c3C[C@H]2O)C1 [Example 21a, 3-[5-Acetyl-1-((1R,2R)-4-chloro-6-fluoro-2-hydroxy-indan-1-yl)-4,5,6,7-tetrahydro-1H-pyrazolo[4,3-c]pyridin-3-yl]-benzonitrile] | 0.393 |
